The results in this text go back to ChEMBL document CHEMBL5726853, “3-acetylenyl-pyrazole-pyrimidine derivative, and preparation method therefor and uses thereof” (2019).

Molecules are shown by their SMILES.

The target of the test is Proto-oncogene tyrosine-protein kinase Src (Homo sapiens, UniProt P12931).
Chain of Proto-oncogene tyrosine-protein kinase Src (P12931 2-536 limits assumed): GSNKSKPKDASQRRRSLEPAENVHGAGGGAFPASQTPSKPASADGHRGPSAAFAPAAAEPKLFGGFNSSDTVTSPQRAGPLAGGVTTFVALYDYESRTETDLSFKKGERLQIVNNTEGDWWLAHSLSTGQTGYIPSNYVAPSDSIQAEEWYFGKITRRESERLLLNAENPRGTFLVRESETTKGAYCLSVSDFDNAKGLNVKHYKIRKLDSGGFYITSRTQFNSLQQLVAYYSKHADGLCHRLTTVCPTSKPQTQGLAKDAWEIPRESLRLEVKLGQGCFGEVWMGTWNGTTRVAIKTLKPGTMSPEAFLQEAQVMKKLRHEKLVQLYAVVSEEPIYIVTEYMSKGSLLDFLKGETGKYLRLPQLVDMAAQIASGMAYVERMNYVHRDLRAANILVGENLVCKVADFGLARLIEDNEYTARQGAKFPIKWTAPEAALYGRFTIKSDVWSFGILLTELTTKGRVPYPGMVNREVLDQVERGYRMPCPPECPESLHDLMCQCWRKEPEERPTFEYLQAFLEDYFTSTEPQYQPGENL

Compound `Cc1ccc(NC(=O)c2ccc(CN3CCN(C)CC3)cc2)cc1C#Cc1nn(C(C)C)c2ncnc(N)c12` returned an IC50 of 4 nM.
